# In ChEMBL document CHEMBL4130597 (ACS Med Chem Lett, 2017):
# Assays:
# [1] = test system: Human immunodeficiency virus 1; assay: Antiviral activity against HIV1 infected in GFP expressing human MT4 cells assessed as inhibition of viral replication after 24 hrs in presence of 50% normal human serum; format: functional, organism-based; conditions: Human immunodeficiency virus 1, MT4, 24 h
# Protease = Protease (Human immunodeficiency virus 1, UniProt Q9YQ12); assay: Inhibition of HIV1 protease expressed in Escherichia coli using Val-Ser-Gln-Asn-(beta-naphtyl)Ala-Pro-Ile-Val as substrate preincubated for 30 mins followed by substrate addition measured after 1 hr by mass spectrometric method
# [2] = target: Protease (Human immunodeficiency virus 1) (UniProt Q9YQ12); assay: Potency index, ratio of MK-8718 IC50 to test compound IC50 for HIV1 protease
# [3] = test system: Human immunodeficiency virus 1; assay: Potency index, ratio of MK-8718 EC50 to test compound EC50 for HIV1 infected in GFP expressing human MT4 cells assessed as inhibition of viral replication; format: functional
# Sequence of Protease (Q9YQ12 whole entry): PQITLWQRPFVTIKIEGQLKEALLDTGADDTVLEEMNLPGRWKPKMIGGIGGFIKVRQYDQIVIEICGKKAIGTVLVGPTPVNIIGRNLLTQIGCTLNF
# Sequence of Protease (Human immunodeficiency virus 1) (Q9YQ12 as listed by the source): as the sequence (Q9YQ12 whole entry) above
Compound,EC50 [1] [nM],other results
C[C@@H]1CN(S(=O)(=O)c2ccccc2)[C@@H](CCc2c(F)cccc2NC(=O)CC(c2ccc(F)cc2)c2ccc(F)cc2)CN1,520,
COC(=O)N[C@H](C(=O)N[C@@H](Cc1ccccc1)[C@@H](O)CN(Cc1ccc(-c2ccccn2)cc1)NC(=O)[C@@H](NC(=O)OC)C(C)(C)C)C(C)(C)C [ATAZANAVIR],12,
CC(C)CN(C[C@@H](O)[C@H](Cc1ccccc1)NC(=O)O[C@H]1CO[C@H]2OCC[C@H]21)S(=O)(=O)c1ccc(N)cc1,7,
C[C@@H]1CNC[C@H](CCc2c(F)cccc2NC(=O)CC(c2ccc(F)cc2)c2ccc(F)cc2)N1S(=O)(=O)c1ccccc1,70,
N[C@H](C(=O)Nc1cncc(F)c1CC[C@H]1CN[C@@H]2CCCS(=O)(=O)N1C2)[C@@H](c1ccc(Cl)cc1)c1cc(F)cc(F)c1,2.8,IC50 (Protease): 0.012 nM; Ratio IC50 [2]: 60; Ratio EC50 [3]: 10
N[C@H](C(=O)Nc1cncc(F)c1CC[C@@H]1CN[C@H](COC(=O)NCC(F)(F)F)CO1)[C@@H](c1ccc(Cl)cc1)c1cc(F)cc(F)c1,27,IC50 (Protease): 0.7 nM
C[C@H]1CNC[C@H](CCc2c(F)cccc2NC(=O)CC(c2ccc(F)cc2)c2ccc(F)cc2)N1S(=O)(=O)c1ccccc1,17,
O=C(CC(c1ccc(F)cc1)c1ccc(F)cc1)Nc1cccc(F)c1CC[C@@H]1CNCCN1S(=O)(=O)c1ccccc1,1200,
O=C(CC(c1ccc(F)cc1)c1ccc(F)cc1)Nc1cccc(F)c1CC[C@H]1CN[C@@H]2CCCS(=O)(=O)N1C2,21,
O=C(CC(c1ccc(F)cc1)c1ccc(F)cc1)Nc1cccc(F)c1CC[C@H]1CNCCN1S(=O)(=O)c1ccccc1,27,
C[C@H]1CN(S(=O)(=O)c2ccccc2)[C@@H](CCc2c(F)cccc2NC(=O)CC(c2ccc(F)cc2)c2ccc(F)cc2)CN1,700,
